Measurements taken from publication PMC7059070, “Synthesis and in-vitro Evaluation of S-allyl Cysteine Ester - Caffeic Acid Amide Hybrids as Potential Anticancer Agents” (Iranian Journal of Pharmaceutical Research : IJPR, 2019).
≈ marks a conversion by molar mass, not a printed value. Where two headings read alike, the source gives them in different places.

Experiments:
[1] = system: SW480 human colon adenocarcinoma cells; assay: Cell viability, sulforhodamine B (SRB) assay, SW480 cells; type: cell-based; settings: for IC50: Homo sapiens, SW480 cells, SRB; for SI (selectivity index), 24 h: ratio of IC50 against CHO-K1 to IC50 against SW480, 24 h; for SI (selectivity index), 48 h: ratio of IC50 against CHO-K1 to IC50 against SW480, 48 h
Protocol: (§1) Biological assays were performed using an adenocarcinoma colon cancer cell line (SW480) and non-malignant cells (CHO-K1). These were obtained from the European Collection of Authenticated Cell Cultures (ECACC, England) and maintained in Dulbecco’s Modified Eagle Medium, supplemented with 10% heat-inactivated (56 °C) horse serum, 1% penicillin/streptomycin and 1% non-essential amino acids (Gibco Invitrogen, Carlsbad, USA). For all experiments, horse serum was reduced to 3%, and the medium was supplemented with […] transferrin, 5 ng/mL selenium and […] insulin (ITS-defined medium; Gibco, Invitrogen, Carlsbad, USA) ([32]).
(§2) The cell viability of the synthesized hybrids, lead, and reference compounds was evaluated through Sulforhodamine B (SRB) assay, a colorimetric test that is based on staining of total cellular protein of adherent cells. The cells were seeded to a ﬁnal density of 20.000 cells/well in 96-well tissue culture plates and incubated at 37 °C in a humidified atmosphere at 5% CO2. […] After treatment, the cells were fixed with trichloroacetic acid (50% v/v) (MERCK) for a period of one h at 4 °C. The cell proteins were determined by staining with 0.4% (w/v) SRB (Sigma-Aldrich, United States), then they were washed with 1% acetic acid for the removal of unbound SRB and left for air-drying. Protein bound SRB was solubilized in 10 mM Tris-base and the absorbance was measured at 492 nm in a microplate reader (Mindray MR-96A) ([33]). All of the experiments were performed at least in quintuplicate.

[2] = system: non-malignant CHO-K1 cell line; assay: Cell viability, sulforhodamine B (SRB) assay, CHO-K1 cells; type: cell-based; settings: Cricetulus griseus
Protocol: as §1, §2

[3] = system: SW480 cells; assay: Mitochondrial membrane potential (ΔΨm), DiOC6/PI flow cytometry; type: cell-based, human; settings: SW480, treated at IC50, 48 h; for PI+ cells: cells in process of death; for DiOC6 low cells: cells that lose membrane polarization; for DiOC6 high cells: live cells with high membrane polarization; for Mitochondrial membrane depolarization in words: vs control
Protocol: Mitochondrial membrane permeability changes were assessed through the fluorescent dye DiOC6 (3,3’-dihexyloxacarbocyanine iodide, Thermo Fisher Scientiﬁc, Waltham, MA, USA), and propidium iodide (PI). The cells were seeded to a ﬁnal density of 2.5 x 10^5 cells/well in 6-well tissue culture plates and were allowed to grow for 24 h. […] The cells were collected to analyze 10,000 events by ﬂow cytometry with excitation at 488 nm and detection of the emission with the green (530/15 nm) and the red (610/20 nm) ﬁlters. This method allowed us quantifying cells with depolarized mitochondrial membrane ([34]).

[4] = system: SW480 cells; assay: Cell cycle analysis, propidium iodide flow cytometry; type: cell-based, human; settings: SW480, treated at IC50, 48 h
Protocol: Cell cycle distribution was analyzed by labelling cells with propidium iodide (PI). Assays were carried out as described by Nicoletti et al. (1991). In brief, cells were seeded in 6-well tissue culture plates at a density of 2.5 x 10^5 cells/well, incubated at 37 °C in a 5% CO2 atmosphere. […] After the treatment, the cells were collected by scraping and the centrifuged cell pellet was resuspended with phosphate buffered saline (PBS). The cell suspension was fixed in 1.8 mL 70% ethanol at 4°C overnight, afterward, these were centrifuged, washed twice in PBS and resuspended in 300 µL of PBS containing 0.25 mg/mL RNAse (Type I-A, Sigma-Aldrich, Germany) and 0.1 mg/mL PI. Following the incubation in the dark at room temperature for 30 min, the PI ﬂuorescence of 10,000 cells was analyzed using a FACS Canto II ﬂow cytometer and the software BD FACS Diva 6.1.3. (BD Biosciences, San Jose). PI signal was analyzed with excitation at 488 nm, using a Sapphire laser, and fluorescence was detected at 610nm. The cell clumps were excluded with the PI-Area vs PI-Width signals. The cell cycle model was ﬁxed using the software FlowJo 7.6.2 (Ashland, OR, USA), applying the Dean-Jett-Fox model ([34], [35]).

[5] = system: SW480 cells; assay: Antiproliferative activity, SRB assay over 0-8 days; type: cell-based, human; settings: 0.1-0.55 mM, p ≤ 0.05 vs control
Protocol: Briefly, the cells were seeded to a ﬁnal density of 2500 cells/well in 96-well tissue culture plates and incubated in the same conditions described for viability. […] Culture media was replaced every 48 h. After each incubation time, the cells were fixed, stained, and read as previously described for this technique ([32]).

[6] = system: human nasopharyngeal carcinoma cell line KB; design: method as in PMID 19272773; settings: cited from earlier work
[7] = system: human gastric carcinoma cell line BGC-823; design: method as in PMID 19272773; settings: cited from earlier work
[8] = system: human hepatoma cell line BEL-7402; design: method as in PMID 19272773; settings: cited from earlier work
[9] = 24 h treatment, read-out: IC50 (mM) SW480 cells, 24 h
[10] = 48 h treatment, read-out: IC50 (mM) SW480 cells, 48 h
[11] = 24 h treatment, read-out: IC50 (mM) CHO-K1 cells, 24 h
[12] = 48 h treatment, read-out: IC50 (mM) CHO-K1 cells, 48 h

SMILES	melting point [°C]	IC50 [1, 9] [mM]	IC50 [1, 10] [mM]	SI (selectivity index), 24 h [1]	IC50 [2, 11] [mM]	IC50 [2, 12] [mM]	SI (selectivity index), 48 h [1]	Cytotoxic activity in words ([1]; at 24 h and 48 h after treatment)	PI+ cells [3]	DiOC6 low cells [3]	DiOC6 high cells [3]	Cells in G2/M phase [4] [%]	Effect on cell cycle in words [4]	Day from which significant antiproliferative activity was displayed [5] [days]	Mitochondrial membrane depolarization in words [3]	Cells in G0/G1 phase [4] [%]	Cells in S phase [4] [%]	IC50 against KB [6] [µg/mL]	IC50 against BGC-823 [7] [µg/mL]	IC50 against BEL-7402 [8] [µg/mL]
C=CCSC[C@H](N)C(=O)OC [3a, S-Allylcysteine methyl ester]	114 to 116	> 10	> 10	<0.19	1.85	> 10	–	–	–	–	–	–	–	–	–	–	–	–	–	–
C=CCSC[C@H](N)C(=O)OCCC [3c, Propyl S-prop-2-en-1-ylcysteinate]	115 to 117	> 10	1.28	<0.15	1.5	1.24	0.97	–	–	–	–	–	–	–	–	–	–	–	–	–
O=c1[nH]cc(F)c(=O)[nH]1 [5-Fluorouracil, 5-fluorouracil, reference compound]	–	0.062	0.035	–	0.091	0.048	1.34	–	–	–	–	–	–	–	–	–	–	–	–	–
C=CCSC[C@H](NC(=O)/C=C/c1ccc(OC(C)=O)c(OC(C)=O)c1)C(=O)OC [6a, Methyl N-{(2E)-3-[3,4-bis(acetyloxy)phenyl]prop-2-enoyl}-S-prop-2-en-1-ylcysteinate]	–	0.67	> 10	–	2.77	7.83	–	–	–	–	–	–	–	–	–	–	–	–	–	–
C=CCSC[C@H](NC(=O)/C=C/c1ccc(OC(C)=O)c(OC(C)=O)c1)C(=O)OCC [6b, Ethyl N-{(2E)-3-[3,4-bis(acetyloxy)phenyl]prop-2-enoyl}-S-prop-2-en-1-ylcysteinate]	–	> 10	> 10	–	3.84	> 10	–	did not exhibit activity	–	–	–	–	–	–	–	–	–	–	–	–
C=CCSC[C@H](NC(=O)/C=C/c1ccc(OC(C)=O)c(OC(C)=O)c1)C(=O)OCCC [6c, Propyl N-{(2E)-3-[3,4-bis(acetyloxy)phenyl]prop-2-enoyl}-S-prop-2-en-1-ylcysteinate]	80 to 82	1.02	> 10	0.26	0.27	1.25	<0.13	–	–	–	–	–	–	–	–	–	–	–	–	–
C=CCSC[C@H](NC(=O)/C=C/c1ccc(OC(C)=O)c(OC(C)=O)c1)C(=O)OCCCC [6d, Butyl N-{(2E)-3-[3,4-bis(acetyloxy)phenyl]prop-2-enoyl}-S-prop-2-en-1-ylcysteinate]	–	2.79	> 10	–	0.21	9.97	–	–	–	–	–	–	–	–	–	–	–	–	–	–
Cc1cccc(NC(=O)/C(C#N)=C/c2cc(O)c(O)c([N+](=O)[O-])c2)c1 [cyanoamide derivative 5]	–	–	–	–	–	–	–	–	–	–	–	–	–	–	–	–	–	13.1 (≈ 38.6 µM)	5.6 (≈ 16.5 µM)	12.5 (≈ 36.8 µM)

Continued, in another order:

melting point [°C]	IC50 [1, 9] [mM]	IC50 [1, 10] [mM]	SMILES	SI (selectivity index), 24 h [1]	IC50 [2, 11] [mM]	IC50 [2, 12] [mM]	SI (selectivity index), 48 h [1]	Cytotoxic activity in words ([1]; at 24 h and 48 h after treatment)	PI+ cells [3]	DiOC6 low cells [3]	DiOC6 high cells [3]	Cells in G2/M phase [4] [%]	Effect on cell cycle in words [4]	Day from which significant antiproliferative activity was displayed [5] [days]	Mitochondrial membrane depolarization in words [3]	Cells in G0/G1 phase [4] [%]	Cells in S phase [4] [%]	IC50 against KB [6] [µg/mL]	IC50 against BGC-823 [7] [µg/mL]	IC50 against BEL-7402 [8] [µg/mL]
101 to 103	0.68	0.18	C=CCSC[C@H](NC(=O)/C=C/c1ccc(OC(C)=O)c(OC(C)=O)c1)C(=O)OCCCCC [6e, Pentyl N-{(2E)-3-[3,4-bis(acetyloxy)phenyl]prop-2-enoyl}-S-prop-2-en-1-ylcysteinate]	0.40	0.26	1.84	10.3	–	9,38%	39,9%	51,0%	22.7	cell cycle arrest in G2/M phase	2	–	–	–	–	–	–
101 to 103	0.24	0.12	C=CCSC[C@H](NC(=O)/C=C/c1ccc(O)c(O)c1)C(=O)OC [9a, Methyl N-[(2E)-3-(3,4-dihydroxyphenyl)-2-propenoyl]-S-2-propen-1-yl-L-cysteinate]	2.0	0.47	0.18	1.5	–	8,16%	62,9%	29,4%	18.8	cell cycle arrest in G2/M phase	–	highest activity	–	–	–	–	–
–	0.93	0.12	C=CCSC[C@H](NC(=O)/C=C/c1ccc(O)c(O)c1)C(=O)OCC [9b, Ethyl N-[(2E)-3-(3,4-dihydroxyphenyl)-2-propenoyl]-S-2-propen-1-yl-L-cysteinate]	–	> 10	> 10	–	–	21,9%	36,5%	42,0%	–	did not have any impact on the cell cycle	–	–	–	–	–	–	–
–	0.1	0.11	C=CCSC[C@H](NC(=O)/C=C/c1ccc(O)c(O)c1)C(=O)OCCC [9c, Propyl N-[(2E)-3-(3,4-dihydroxyphenyl)-2-propenoyl]-S-2-propen-1-yl-L-cysteinate]	–	0.12	> 10	–	–	9,13%	45,0%	44,5%	–	S- phase	–	–	67.3	23	–	–	–
119 to 121	0.11	0.15	C=CCSC[C@H](NC(=O)/C=C/c1ccc(O)c(O)c1)C(=O)OCCCC [9d, Butyl N-[(2E)-3-(3,4-dihydroxyphenyl)-2-propenoyl]-S-2-propen-1-yl-L-cysteinate]	>90.91	> 10	> 10	>66.67	–	–	–	–	–	–	4	–	–	–	–	–	–
–	0.2	0.12	C=CCSC[C@H](NC(=O)/C=C/c1ccc(O)c(O)c1)C(=O)OCCCCC [9e, Pentyl N-[(2E)-3-(3,4-dihydroxyphenyl)-2-propenoyl]-S-2-propen-1-yl-L-cysteinate]	–	0.21	> 10	–	–	8,32%	59,9%	32,5%	22.3	cell cycle arrest in G2/M phase	2	highest activity	–	–	–	–	–
–	7.06	3.47	O=C(O)/C=C/c1ccc(O)c(O)c1 [Caffeic acid]	>1.42	> 10	> 10	>2.88	–	–	–	–	–	–	–	–	–	–	–	–	–
–	> 10	0.38	C=CCSC[C@H](N)C(=O)O [S-Allylcysteine, reference compound]	>1.0	> 10	> 10	>26.32	–	–	–	–	–	–	–	–	–	–	–	–	–
